Assay results as given in PubChem BioAssay (NCI).
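Method: 48-hour compound exposure of cells in 96-well plates, five concentrations, linear interpolation of endpoints. Here, GI50 denotes the concentration required for 50% inhibition of growth. TGI marks complete inhibition of growth.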

Experiments:
Test in all cases: growth of human tumour cells (NCI), 48 h
786-0 renal = system: 786-0 renal
A498 renal = system: A498 renal
A549 NSCLC = system: A549 NSCLC
ACHN renal = system: ACHN renal
BT-549 breast = system: BT-549 breast
CAKI-1 renal = system: CAKI-1 renal
CCRF-CEM leukemia = system: CCRF-CEM leukemia
COLO 205 colon = system: COLO 205 colon
DU-145 prostate = system: DU-145 prostate
EKVX NSCLC = system: EKVX NSCLC
HCC-2998 colon = system: HCC-2998 colon
HCT-116 colon = system: HCT-116 colon
HCT-15 colon = system: HCT-15 colon
HL-60(TB) leukemia = system: HL-60(TB) leukemia
HOP-62 NSCLC = system: HOP-62 NSCLC
HOP-92 NSCLC = system: HOP-92 NSCLC
HS 578T breast = system: HS 578T breast
HT29 colon = system: HT29 colon
IGROV1 ovarian = system: IGROV1 ovarian
K-562 leukemia = system: K-562 leukemia
KM12 colon = system: KM12 colon
LOX IMVI melanoma = system: LOX IMVI melanoma
M14 melanoma = system: M14 melanoma
MALME-3M melanoma = system: MALME-3M melanoma
MCF7 breast = system: MCF7 breast
MDA-MB-231 breast = system: MDA-MB-231 breast
MDA-MB-435 = system: MDA-MB-435
MOLT-4 leukemia = system: MOLT-4 leukemia
NCI-H226 lung = system: NCI-H226 lung
NCI-H23 lung = system: NCI-H23 lung
NCI-H460 lung = system: NCI-H460 lung
NCI-H522 lung = system: NCI-H522 lung
NCI/ADR-RES ovarian = system: NCI/ADR-RES ovarian
OVCAR-3 ovarian = system: OVCAR-3 ovarian
OVCAR-4 ovarian = system: OVCAR-4 ovarian
OVCAR-5 ovarian = system: OVCAR-5 ovarian
OVCAR-8 ovarian = system: OVCAR-8 ovarian
PC-3 prostate = system: PC-3 prostate
RPMI-8226 leukemia = system: RPMI-8226 leukemia
RXF 393 renal = system: RXF 393 renal
SF-268 CNS = system: SF-268 CNS
SF-295 CNS = system: SF-295 CNS
SF-539 CNS = system: SF-539 CNS
SK-MEL-2 melanoma = system: SK-MEL-2 melanoma
SK-MEL-28 melanoma = system: SK-MEL-28 melanoma
SK-MEL-5 melanoma = system: SK-MEL-5 melanoma
SK-OV-3 ovarian = system: SK-OV-3 ovarian
SN12C renal = system: SN12C renal
SNB-19 CNS = system: SNB-19 CNS
SNB-75 CNS = system: SNB-75 CNS
SR leukemia = system: SR leukemia
SW-620 colon = system: SW-620 colon
T-47D breast = system: T-47D breast
TK-10 renal = system: TK-10 renal
U251 CNS = system: U251 CNS
UACC-257 melanoma = system: UACC-257 melanoma
UACC-62 melanoma = system: UACC-62 melanoma
UO-31 renal = system: UO-31 renal

`COc1ccc(Cc2nnc(Nc3ccc(Br)cc3)[nH]c2=O)cc1OC` gave a TGI (786-0 renal) of over 100 µM, a TGI (A498 renal) of over 100 µM and a TGI (A549 NSCLC) of over 100 µM. For the same molecule, the TGI (ACHN renal) was over 100 µM, the TGI (BT-549 breast) was over 31.6 µM and the TGI (CAKI-1 renal) was over 100 µM. For the same molecule, the TGI (CCRF-CEM leukemia) was over 100 µM, the TGI (COLO 205 colon) was over 100 µM and the TGI (DU-145 prostate) was over 100 µM. For the same molecule, the TGI (EKVX NSCLC) was over 100 µM, the TGI (HCC-2998 colon) was over 100 µM and the TGI (HCT-116 colon) was over 100 µM. It also gave a TGI (HCT-15 colon) of over 100 µM, a TGI (HL-60(TB) leukemia) of over 100 µM and a TGI (HOP-62 NSCLC) of over 95.8 µM. The TGI (HOP-92 NSCLC) was over 100 µM, the TGI (HS 578T breast) was over 100 µM and the TGI (HT29 colon) was over 100 µM. For the same molecule, the TGI (IGROV1 ovarian) was over 100 µM, the TGI (K-562 leukemia) was over 100 µM and the TGI (KM12 colon) was over 100 µM. For the same molecule, the TGI (LOX IMVI melanoma) was over 100 µM, the TGI (M14 melanoma) was over 100 µM and the TGI (MALME-3M melanoma) was over 100 µM. The TGI (MCF7 breast) was over 100 µM, the TGI (MDA-MB-231 breast) was over 100 µM and the TGI (MDA-MB-435) was 20.7 µM. It also gave a TGI (MOLT-4 leukemia) of over 100 µM, a TGI (NCI-H226 lung) of over 100 µM and a TGI (NCI-H23 lung) of over 100 µM. For the same molecule, the TGI (NCI-H460 lung) was over 100 µM, the TGI (NCI-H522 lung) was over 100 µM and the TGI (NCI/ADR-RES ovarian) was over 100 µM. For the same molecule, the TGI (OVCAR-3 ovarian) was over 100 µM, the TGI (OVCAR-4 ovarian) was over 100 µM and the TGI (OVCAR-5 ovarian) was over 100 µM. The TGI (OVCAR-8 ovarian) was over 100 µM, the TGI (PC-3 prostate) was over 100 µM and the TGI (RPMI-8226 leukemia) was over 100 µM. For the same molecule, the TGI (RXF 393 renal) was over 100 µM, the TGI (SF-268 CNS) was over 100 µM and the TGI (SF-295 CNS) was over 100 µM. For the same molecule, the TGI (SF-539 CNS) was over 100 µM, the TGI (SK-MEL-2 melanoma) was over 100 µM and the TGI (SK-MEL-28 melanoma) was over 100 µM. It also gave a TGI (SK-MEL-5 melanoma) of over 100 µM, a TGI (SK-OV-3 ovarian) of over 100 µM and a TGI (SN12C renal) of over 100 µM. It also gave a TGI (SNB-19 CNS) of over 100 µM, a TGI (SNB-75 CNS) of over 100 µM and a TGI (SR leukemia) of over 94.3 µM. It also gave a TGI (SW-620 colon) of over 100 µM, a TGI (T-47D breast) of over 100 µM and a TGI (TK-10 renal) of over 100 µM. For the same molecule, the TGI (U251 CNS) was over 100 µM, the TGI (UACC-257 melanoma) was over 100 µM and the TGI (UACC-62 melanoma) was over 100 µM. The TGI (UO-31 renal) was over 100 µM.
Work on `COc1cc(C(=O)N2CCN(c3ncnc4ccccc34)CC2)c(N)cc1OCc1ccccc1` yielded a GI50 (786-0 renal) of 12.9 µM, a TGI (786-0 renal) of 26.2 µM and a GI50 (A498 renal) of 5.47 µM. For the same molecule, the TGI (A498 renal) was 19.2 µM, the GI50 (A549 NSCLC) was 16.5 µM and the TGI (A549 NSCLC) was 50.5 µM. For the same molecule, the GI50 (ACHN renal) was 14 µM, the TGI (ACHN renal) was 37.6 µM and the GI50 (BT-549 breast) was 11.3 µM. For the same molecule, the TGI (BT-549 breast) was 25 µM, the GI50 (CAKI-1 renal) was 5.73 µM and the TGI (CAKI-1 renal) was 24.1 µM. The GI50 (CCRF-CEM leukemia) was 23.8 µM, the TGI (CCRF-CEM leukemia) was 58.1 µM and the GI50 (COLO 205 colon) was 5.14 µM. The TGI (COLO 205 colon) was 20.2 µM, the GI50 (DU-145 prostate) was 7.21 µM and the TGI (DU-145 prostate) was 19.9 µM. It also gave a GI50 (EKVX NSCLC) of 22.5 µM, a TGI (EKVX NSCLC) of 48.5 µM and a GI50 (HCC-2998 colon) of 16.6 µM. The TGI (HCC-2998 colon) was 30.3 µM, the GI50 (HCT-116 colon) was 10.7 µM and the TGI (HCT-116 colon) was 22.6 µM. The GI50 (HCT-15 colon) was 16.7 µM, the TGI (HCT-15 colon) was 31 µM and the GI50 (HL-60(TB) leukemia) was 20.4 µM. It also gave a TGI (HL-60(TB) leukemia) of 47.7 µM, a GI50 (HOP-92 NSCLC) of 15.4 µM and a TGI (HOP-92 NSCLC) of 36.3 µM. For the same molecule, the GI50 (HS 578T breast) was 17.1 µM, the TGI (HS 578T breast) was 55.7 µM and the GI50 (HT29 colon) was 12.7 µM. For the same molecule, the TGI (HT29 colon) was 27.4 µM, the GI50 (IGROV1 ovarian) was 17.8 µM and the TGI (IGROV1 ovarian) was 41.6 µM. For the same molecule, the GI50 (K-562 leukemia) was 16.1 µM, the TGI (K-562 leukemia) was 42.8 µM and the GI50 (KM12 colon) was 14.9 µM. For the same molecule, the TGI (KM12 colon) was 38.4 µM, the GI50 (LOX IMVI melanoma) was 12.2 µM and the TGI (LOX IMVI melanoma) was 24.6 µM. It also gave a GI50 (M14 melanoma) of 15.2 µM, a TGI (M14 melanoma) of 28.6 µM and a GI50 (MALME-3M melanoma) of 13.7 µM. It also gave a TGI (MALME-3M melanoma) of 30.4 µM, a GI50 (MCF7 breast) of 8.29 µM and a TGI (MCF7 breast) of 22.7 µM. It also gave a GI50 (MDA-MB-231 breast) of 13.9 µM, a TGI (MDA-MB-231 breast) of 35.3 µM and a GI50 (MDA-MB-435) of 13.1 µM. The TGI (MDA-MB-435) was 27.4 µM, the GI50 (MOLT-4 leukemia) was 8.55 µM and the TGI (MOLT-4 leukemia) was 40.4 µM. It also gave a GI50 (NCI-H226 lung) of 16.1 µM, a TGI (NCI-H226 lung) of 33.3 µM and a GI50 (NCI-H23 lung) of 15.6 µM. The TGI (NCI-H23 lung) was 30.4 µM, the GI50 (NCI-H460 lung) was 11.3 µM and the TGI (NCI-H460 lung) was 26.1 µM. The GI50 (NCI-H522 lung) was 5.71 µM, the TGI (NCI-H522 lung) was 26.8 µM and the GI50 (NCI/ADR-RES ovarian) was 16.1 µM. The TGI (NCI/ADR-RES ovarian) was 35.1 µM, the GI50 (OVCAR-3 ovarian) was 11.8 µM and the TGI (OVCAR-3 ovarian) was 25 µM. For the same molecule, the GI50 (OVCAR-4 ovarian) was 13.2 µM, the TGI (OVCAR-4 ovarian) was 47 µM and the GI50 (OVCAR-5 ovarian) was 15.3 µM. The TGI (OVCAR-5 ovarian) was 31.5 µM, the GI50 (PC-3 prostate) was 15.4 µM and the TGI (PC-3 prostate) was 43.2 µM. For the same molecule, the GI50 (RPMI-8226 leukemia) was 14 µM, the TGI (RPMI-8226 leukemia) was 47.8 µM and the GI50 (RXF 393 renal) was 13.1 µM. For the same molecule, the TGI (RXF 393 renal) was 27 µM, the GI50 (SF-268 CNS) was 14.1 µM and the TGI (SF-268 CNS) was 30.1 µM. For the same molecule, the GI50 (SF-295 CNS) was 12.8 µM, the TGI (SF-295 CNS) was 27.8 µM and the GI50 (SF-539 CNS) was 18.6 µM. For the same molecule, the TGI (SF-539 CNS) was 33.2 µM, the GI50 (SK-MEL-2 melanoma) was 16.5 µM and the TGI (SK-MEL-2 melanoma) was 41.3 µM. The GI50 (SK-MEL-28 melanoma) was 16.5 µM, the TGI (SK-MEL-28 melanoma) was 30.5 µM and the GI50 (SK-MEL-5 melanoma) was 11.1 µM. It also gave a TGI (SK-MEL-5 melanoma) of 23 µM, a GI50 (SK-OV-3 ovarian) of 20.9 µM and a TGI (SK-OV-3 ovarian) of 49 µM. The GI50 (SN12C renal) was 18.3 µM, the TGI (SN12C renal) was 32.3 µM and the GI50 (SNB-19 CNS) was 13.7 µM. It also gave a TGI (SNB-19 CNS) of 29.8 µM, a GI50 (SNB-75 CNS) of 7.63 µM and a TGI (SNB-75 CNS) of 20.8 µM. The GI50 (SR leukemia) was 4.11 µM, the TGI (SR leukemia) was 15.9 µM and the GI50 (SW-620 colon) was 11.4 µM. The TGI (SW-620 colon) was 23.5 µM, the GI50 (T-47D breast) was 7.08 µM and the TGI (T-47D breast) was 40.9 µM. It also gave a GI50 (TK-10 renal) of 20 µM, a TGI (TK-10 renal) of 51.1 µM and a GI50 (U251 CNS) of 11.3 µM. For the same molecule, the TGI (U251 CNS) was 23.3 µM, the GI50 (UACC-257 melanoma) was 21.7 µM and the TGI (UACC-257 melanoma) was 48.5 µM. For the same molecule, the GI50 (UACC-62 melanoma) was 12 µM, the TGI (UACC-62 melanoma) was 24.3 µM and the GI50 (UO-31 renal) was 12 µM. The TGI (UO-31 renal) was 26.5 µM.
